Test results from patent US20230117324A1, “OXAZINE MONOACYLGLYCEROL LIPASE (MAGL) INHIBITORS” (Hoffmann-La Roche Inc., priority 2018, published 2023).

The molecules below were run against T1, MAGL (Homo sapiens, UniProt Q99685) (assay: MAGL inhibition, 2-AG assay (hydrolysis of 2-arachidonoylglycerol, arachidonic acid by mass spectrometry)). Settings: 2-AG assay (footnote [b]).
T1 sequence (Q99685 1-303): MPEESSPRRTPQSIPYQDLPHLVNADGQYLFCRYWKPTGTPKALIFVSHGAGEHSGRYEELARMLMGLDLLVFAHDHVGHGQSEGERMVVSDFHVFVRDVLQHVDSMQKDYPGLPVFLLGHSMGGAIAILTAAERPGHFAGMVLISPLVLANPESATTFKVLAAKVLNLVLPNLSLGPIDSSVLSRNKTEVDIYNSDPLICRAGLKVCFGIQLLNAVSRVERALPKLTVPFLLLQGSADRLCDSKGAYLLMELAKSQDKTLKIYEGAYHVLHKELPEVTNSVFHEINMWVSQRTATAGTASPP
Type: biochemical
Procedure, shortened: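 Human MAGL […] was preincubated 15 min at RT with compound ([…], 3-fold steps) in 50 mM Tris, 1 mM EDTA, 0.01% Tween. 2-AG (8 μM) was then added for 30 min at RT. Arachidonic acid was quantified by RapidFire SPE–triple quadrupole MS in negative ESI as its ratio to a d8-arachidonic acid standard.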

IC50 [nM]	Structure (SMILES)
381	CC1CN(C(=O)N2CC[C@@H]3OCC(=O)N[C@@H]3C2)CCC1c1ccc(C(C)(F)F)cn1 (single isomer, unassigned) [Example 44, (4aR,8aS)-6-((3S or 3R)-4-(5-(1,1-Difluoroethyl)pyridin-2-yl)-3-methylpiperidine-1-carbonyl)hexahydro-2H-pyrido[4,3-b][1,4]oxazin-3(4H)-one]
8	O=C1CO[C@H]2CCN(C(=O)N3CC(c4ccc(N5CC6CCC(C5)O6)cc4)C3)C[C@H]2N1 [Example 192, (4aR,8aS)-6-(3-(4-(8-Oxa-3-azabicyclo[3.2.1]octan-3-yl)phenyl)azetidine-1-carbonyl)hexahydro-2H-pyrido[4,3-b][1,4]oxazin-3(4H)-one]
2	O=C1CO[C@H]2CCN(C(=O)N3CC(c4ccc(N5CCC(C(F)(F)F)C5)nc4)C3)C[C@H]2N1 (stereo partly drawn) [Example 273, (4aR,8aS)-6-[3-[6-[3-(Trifluoromethyl)pyrrolidin-1-yl]-3-pyridyl]azetidine-1-carbonyl]-4,4a,5,7,8,8a-hexahydropyrido[4,3-b][1,4]oxazin-3-one]
530	O=C1CO[C@H]2CCN(C(=O)N3CCC(c4cn(CCO)c5ccc(Cl)cc45)CC3)C[C@@H]2N1 [Example 269, (4aS,8aS)-6-[4-[5-Chloro-1-(2-hydroxyethyl)indol-3-yl]piperidine-1-carbonyl]-4,4a,5,7,8,8a-hexahydropyrido[4,3-b][1,4]oxazin-3-one]
26	O=C1CO[C@H]2CCN(C(=O)N3CC(c4ccc(N5CCC(C(F)(F)F)C5)cn4)C3)C[C@H]2N1 (stereo partly drawn) [Example 270, (4aR,8aS)-6-(3-(5-(3-(Trifluoromethyl)pyrrolidin-1-yl)pyridin-2-yl)azetidine-1-carbonyl)hexahydro-2H-pyrido[4,3-b][1,4]oxazin-3(4H)-one]
114	O=C1CO[C@H]2CCN(C(=O)N3CCC(c4cccc(OC(F)(F)F)c4)C3)C[C@H]2N1 (single isomer, unassigned) [Example 222, (4aR,8aS)-6-[3-(R or S)-[3-(Trifluoromethoxy)phenyl]pyrrolidine-1-carbonyl]-4,4a,5,7,8,8a-hexahydropyrido[4,3-b][1,4]oxazin-3-one]
413	Cn1ncc2ccc(C3CN(C(=O)N4CC[C@@H]5OCC(=O)N[C@@H]5C4)C3)cc21 [Example 220, (4aR,8aS)-6-(3-(1-Methyl-1H-indazol-6-yl)azetidine-1-carbonyl)hexahydro-2H-pyrido[4,3-b][1,4]oxazin-3(4H)-one]
1	CC(Oc1ccc(C2CN(C(=O)N3CC[C@@H]4OCC(=O)N[C@@H]4C3)C2)cc1)C(F)(F)F (single isomer, unassigned) [Example 248, (4aR,8aS)-6-[3-(S or R)-[4-(2,2,2-Trifluoro-1-methyl-ethoxy)phenyl]azetidine-1-carbonyl]-4,4a,5,7,8,8a-hexahydropyrido[4,3-b][1,4]oxazin-3-one]
0.4	O=C1CO[C@H]2CCN(C(=O)N3CC(c4ccc(N5CCCC5C(F)(F)F)cc4)C3)C[C@H]2N1 (single isomer, unassigned) [Example 195]
10	O=C1CO[C@H]2CCN(C(=O)N3CC(c4cc(F)c(OC(F)(F)F)c(F)c4)C3)C[C@H]2N1 [Example 204, (4aR,8aS)-6-(3-(3,5-Difluoro-4-(trifluoromethoxy)phenyl)azetidine-1-carbonyl)hexahydro-2H-pyrido[4,3-b][1,4]oxazin-3(4H)-one]
243	O=C1CO[C@H]2CCN(C(=O)N3CCC(c4cc(Cl)cc(Cl)c4)C3)C[C@H]2N1 (stereo partly drawn) [Example 235, (4aR,8aS)-6-(3-(3,5-Dichlorophenyl)pyrrolidine-1-carbonyl)hexahydro-2H-pyrido[4,3-b][1,4]oxazin-3(4H)-one]
0.4	CS(=O)(=O)c1cc(Cl)ccc1-c1ccc(C2CN(C(=O)N3CC[C@@H]4OCC(=O)N[C@@H]4C3)C2)cc1 [Example 173, (4aR,8aS)-6-(3-(4′-Chloro-2′-(methylsulfonyl)-[1,1′-biphenyl]-4-yl)azetidine-1-carbonyl)hexahydro-2H-pyrido[4,3-b][1,4]oxazin-3(4H)-one]
0.4	COc1ccc(C(c2ccc(F)cc2)C2CCN(C(=O)N3CC[C@@H]4OCC(=O)N[C@@H]4C3)CC2)cc1OC (single isomer, unassigned) [Example 73, (4aR,8aS)-6-(4-((S or R)-(3,4-Dimethoxyphenyl)(4-fluorophenyl)methyl)piperidine-1-carbonyl)hexahydro-2H-pyrido[4,3-b][1,4]oxazin-3(4H)-one]
6	CC1CCN1c1ccc(C2CN(C(=O)N3CC[C@@H]4OCC(=O)N[C@@H]4C3)C2)cc1 (stereo partly drawn) [Example 217, (4aR,8aS)-6-(3-(4-(2-Methylazetidin-1-yl)phenyl)azetidine-1-carbonyl)hexahydro-2H-pyrido[4,3-b][1,4]oxazin-3(4H)-one]
0.3	O=C1CO[C@H]2CCN(C(=O)N3CC(c4ccc(OCC5(C(F)(F)F)CC5)cc4)C3)C[C@H]2N1 [Example 244, (4aR,8aS)-6-[3-[4-[[1-(Trifluoromethyl)cyclopropyl]methoxy]phenyl]azetidine-1-carbonyl]-4,4a,5,7,8,8a-hexahydropyrido[4,3-b][1,4]oxazin-3-one]
233	O=C1CO[C@H]2CCN(C(=O)N3CC(c4ccn(-c5ccc(Cl)cc5Cl)n4)C3)C[C@H]2N1 [Example 257, (4aR,8aS)-6-[3-[1-(2,4-Dichlorophenyl)pyrazol-3-yl]azetidine-1-carbonyl]-4,4a,5,7,8,8a-hexahydropyrido[4,3-b][1,4]oxazin-3-one]
0.4	COc1cccc(C(c2ccc(F)cc2)C2CCN(C(=O)N3CC[C@@H]4OCC(=O)N[C@@H]4C3)CC2)c1 (single isomer, unassigned) [Example 62, (4aR,8aS)-6-[4-[(S or R)-(4-Fluorophenyl)-(3-methoxyphenyl)methyl]piperidine-1-carbonyl]-4,4a,5,7,8,8a-hexahydropyrido[4,3-b][1,4]oxazin-3-one]
44	O=C1CO[C@H]2CCN(C(=O)N3CC(c4cccc(OC(F)(F)F)c4)C3)C[C@H]2N1 [Example 171, (4aR,8aS)-6-(3-(3-(Trifluoromethoxy)phenyl)azetidine-1-carbonyl)hexahydro-2H-pyrido[4,3-b][1,4]oxazin-3(4H)-one]
114	CC(c1ccc(C(F)(F)F)cc1)C1CN(C(=O)N2CC[C@@H]3OCC(=O)N[C@@H]3C2)C1 (stereo partly drawn) [Example 83, (4aR,8aS)-6-[3-[1-[4-(Trifluoromethyl)phenyl]ethyl]azetidine-1-carbonyl]-4,4a,5,7,8,8a-hexahydropyrido[4,3-b][1,4]oxazin-3-one]
5	O=C1CO[C@H]2CCN(C(=O)N3CCC(C(c4ccc(F)cc4)c4nc(C(F)(F)F)no4)CC3)C[C@H]2N1 (stereo partly drawn) [Example 102, (4aR,8aS)-6-(4-((4-Fluorophenyl)(3-(trifluoromethyl)-1,2,4-oxadiazol-5-yl)methyl)piperidine-1-carbonyl)hexahydro-2H-pyrido[4,3-b][1,4]oxazin-3(4H)-one]
0.6	COc1ccc(C(c2ccc(F)cc2)C2CCN(C(=O)N3CC[C@@H]4OCC(=O)N[C@@H]4C3)CC2)cc1 (single isomer, unassigned) [Example 89, (4aR,8aS)-6-(4-((R or S)-(4-Fluorophenyl)(4-methoxyphenyl)methyl)piperidine-1-carbonyl)hexahydro-2H-pyrido[4,3-b][1,4]oxazin-3(4H)-one]
0.04	O=C1CO[C@H]2CCN(C(=O)N3CC(c4ccc(-c5ccc(Cl)cc5Cl)cc4)C3)C[C@H]2N1 [Example 113, (4aR,8aS)-6-(3-(2′,4′-Dichloro-[1,1′-biphenyl]-4-yl)azetidine-1-carbonyl)hexahydro-2H-pyrido[4,3-b][1,4]oxazin-3(4H)-one]
428	CS(=O)(=O)c1cccc(C(c2ccncc2)C2CCN(C(=O)N3CC[C@@H]4OCC(=O)N[C@@H]4C3)CC2)c1 (single isomer, unassigned) [Example 177, (4aR,8aS)-6-[4-[(R or S)-(3-methylsulfonylphenyl)-(4-pyridyl)methyl]piperidine-1-carbonyl]-4,4a,5,7,8,8a-hexahydropyrido[4,3-b][1,4]oxazin-3-one]
156	CC1CN(C(=O)N2CC[C@@H]3OCC(=O)N[C@@H]3C2)CCC1c1ccc(C(C)(F)F)cn1 (single isomer, unassigned) [Example 43, (4aR,8aS)-6-((3R or 3S)-4-(5-(1,1-Difluoroethyl)pyridin-2-yl)-3-methylpiperidine-1-carbonyl)hexahydro-2H-pyrido[4,3-b][1,4]oxazin-3(4H)-one]
0.4	O=C1CO[C@H]2CCN(C(=O)N3CCC(C(c4ccccc4)c4cccc(OCCF)c4)CC3)C[C@H]2N1 (single isomer, unassigned) [Example 66, (4aR,8aS)-6-(4-((S or R)-(3-(2-Fluoroethoxy)phenyl)(phenyl)methyl)piperidine-1-carbonyl)hexahydro-2H-pyrido[4,3-b][1,4]oxazin-3(4H)-one]

Structure (SMILES)	IC50 [nM]
O=C1CO[C@H]2CCN(C(=O)N3CC(c4ccc(N5CC6CC(C6)C5)cc4)C3)C[C@H]2N1 [Example 230, (4aR,8aS)-6-[3-[4-(3-Azabicyclo[3.1.1]heptan-3-yl)phenyl]azetidine-1-carbonyl]-4,4a,5,7,8,8a-hexahydropyrido[4,3-b][1,4]oxazin-3-one]	0.2
